# Source: article PMC8631057 (Antiviral research, 2021)
# pIC50: −log10 of the molar value. Read-outs that look alike come from different tables or passages of the source.
# Experiments:
# [1] = test system: rCedV-Luc; assay: microbe, parasite or virus in culture; type: cell-based; conditions: read-out: IC50 (95% CI)
# [2] = test system: rCedV-Luc; assay: microbe, parasite or virus in culture; type: cell-based; conditions: Cedar virus, Vero C1008, 48 h, read-out: IC50 (95% CI)
# [3] = test system: NiV-B; assay: microbe, parasite or virus in culture; type: cell-based, Nipah virus; conditions: for pIC50: read-out: IC50 (95% CI)
# [4] = test system: HeV; assay: microbe, parasite or virus in culture; type: cell-based, Hendra virus; conditions: for pIC50: read-out: IC50 (95% CI)
# [5] = test system: CedV F and G; type: cell-based
# [6] = in vitro; conditions: human
# [7] = test system: HEK 293T cells
# [8] = test system: Vero E6 cells
# [9] = test system: Vero 76 cell line; conditions: African green monkey
compound,measurement,setting,value
"CCOc1ccc(C2c3[nH]c4ccccc4c3CCN2C(=O)C2CCC2)cc1 (stereo not drawn) [Compound C1, cyclobutyl(1-(4-ethoxyphenyl)-1,3,4,9-tetrahydro-2H-pyrido[3,4-b]indol-2-yl)methanone]",pIC50,"[1]; Cedar virus, HEK-293T, 48 h",5.51
same,pIC50,[2],5.11
same,Selectivity index (SI),[3],> 55
same,pIC50,"[3]; Henipavirus nipahense, Vero 76, 48 h",5.74
same,Selectivity index (SI),[4],> 10
same,pIC50,"[4]; Henipavirus hendraense, Vero 76, 48 h",5.01
same,Inhibition of cell-cell membrane fusion activity,[5],did not inhibit cell-cell membrane fusion activity
same,CC50,[6],> 100 µM
"cyclobutyl(1-(4-ethoxyphenyl)-1,3,4,9-tetrahydro-2H-pyrido[3,4-b]indol-2-yl)methanone [Compound F1]",pIC50,[3],5.38
same,pIC50,[4],4.71
same,Inhibition of cell-cell membrane fusion activity,[5],did not inhibit cell-cell membrane fusion activity
same,Cytotoxicity (in words),[7],mild toxicity
same,CC50,[7]; human,85.8 µM
same,CC50,[8]; African green monkey,> 100 µM
same,CC50,[9],> 100 µM
"COc1ccc(Nc2nc(-c3nnn(-c4ccc(Br)cc4F)c3C)ns2)cc1 [Z, 3-(1-(4-bromo-2-fluorophenyl)-5-methyl-1H-1,2,3-triazol-4-yl)-N-(4-methoxyphenyl)-1,2,4-thiadiazol-5-amine]",pIC50,"[1]; Cedar virus, HEK-293T, 48 h",6.89
same,pIC50,[2],6.39
same,CC50,[6],> 100 µM
(1-(6-(cyclopropylamino)pyrimidin-4-yl)piperidin-4-yl)-N-(2-(thiophen-2-yl)ethyl)propenamide [Compound A3],pIC50,[1],~6.52
same,CC50,[7],> 100 µM
same,CC50,[8],> 100 µM
